From ChEMBL document CHEMBL5104163, “Modulation of key antioxidant enzymes and cell cycle arrest as a possible antifungal mode of action of cinnamaldehyde based azole derivative” (2022)
Values after ≈ are worked out from the molar mass of the structure shown. Active and inactive are the calls of the source. The rule behind the calls is not given here.

Columns and labels:
[1] = tested on: [Candida] auris; assay: Antifungal activity against Candida auris MRL6057; format: functional; details: Candidozyma auris
[2] = tested on: [Candida] auris; assay: Antifungal activity against Candida auris MRL6057 assessed as dead cells at 0.98 ug/ml; format: functional, Candidozyma auris; details: dose 0.98 µg/ml
[3] = tested on: [Candida] auris; assay: Induction of cell cycle arrest in Candida auris MRL6057 cells assessed as cell population at G2/M phase at 0.5xMIC measured by Muse cell analyzer; format: functional, Candidozyma auris
[4] = tested on: [Candida] auris; assay: Induction of cell cycle arrest in Candida auris MRL6057 cells assessed as cell population at G0/G1 phase at 0.5xMIC measured by Muse cell analyzer; format: functional, Candidozyma auris
[5] = tested on: [Candida] auris; assay: Induction of oxidative stress in Candida auris MRL6057 incubated for 2 hrs and assessed as downregulation of GSHR mRNA expression measured by RT-qPCR analysis; format: functional, organism-based; details: Candidozyma auris
[6] = tested on: [Candida] auris; assay: Induction of oxidative stress in Candida auris MRL6057 incubated for 2 hrs and assessed as upregulation of GPx3 mRNA expression measured by RT-qPCR analysis; format: functional, organism-based; details: Candidozyma auris
[7] = tested on: [Candida] auris; assay: Induction of oxidative stress in Candida auris MRL6057 incubated for 2 hrs assessed as increase in CAT activity; format: functional, organism-based; details: Candidozyma auris
[8] = tested on: [Candida] auris; assay: Induction of oxidative stress in Candida auris MRL6057 incubated for 2 hrs and assessed as downregulation of GST1 mRNA expression measured by RT-qPCR analysis; format: functional, organism-based; details: Candidozyma auris
[9] = tested on: [Candida] auris; assay: Antifungal activity against Candida auris MRL6057 assessed as dead cells at 1.96 ug/ml; format: functional, Candidozyma auris; details: dose 1.96 µg/ml
[10] = tested on: [Candida] auris; assay: Induction of oxidative stress in Candida auris MRL6057 incubated for 2 hrs assessed as increase in GPx activity; format: functional, organism-based; details: Candidozyma auris
[11] = tested on: [Candida] auris; assay: Induction of oxidative stress in Candida auris MRL6057 incubated for 2 hrs and assessed as increase in LPO activity; format: functional, organism-based; details: Candidozyma auris
[12] = tested on: [Candida] auris; assay: Induction of oxidative stress in Candida auris MRL6057 incubated for 2 hrs and assessed as upregulation of SOD4 mRNA expression measured by RT-qPCR analysis; format: functional, organism-based; details: Candidozyma auris
[13] = tested on: [Candida] auris; assay: Induction of cell cycle arrest in Candida auris MRL6057 cells assessed as cell population at G2/M phase at MIC measured by Muse cell analyzer; format: functional, Candidozyma auris
[14] = tested on: [Candida] auris; assay: Induction of cell cycle arrest in Candida auris MRL6057 cells assessed as cell population at S phase at 0.5xMIC measured by Muse cell analyzer; format: functional, Candidozyma auris
[15] = tested on: [Candida] auris; assay: Induction of cell cycle arrest in Candida auris MRL6057 cells assessed as cell population at G0/G1 phase at MIC measured by Muse cell analyzer; format: functional, Candidozyma auris
[16] = tested on: [Candida] auris; assay: Antifungal activity against Candida auris MRL6057 assessed as dead cells at 0.49 ug/ml; format: functional, Candidozyma auris; details: dose 0.49 µg/ml
[17] = tested on: Candida albicans; assay: Antifungal activity against Candida albicans assessed as dead cells; format: functional
[18] = tested on: [Candida] auris; assay: Induction of oxidative stress in Candida auris MRL6057 incubated for 2 hrs assessed as decrease in GST activity; format: functional, organism-based; details: Candidozyma auris
[19] = tested on: [Candida] auris; assay: Induction of oxidative stress in Candida auris MRL6057 incubated for 2 hrs assessed as decrease in GLR activity; format: functional, organism-based; details: Candidozyma auris
[20] = tested on: [Candida] auris; assay: Induction of oxidative stress in Candida auris MRL6057 incubated for 2 hrs and assessed as upregulation of CATA mRNA expression measured by RT-qPCR analysis; format: functional, organism-based; details: Candidozyma auris
[21] = tested on: [Candida] auris; assay: Induction of oxidative stress in Candida auris MRL6057 incubated for 2 hrs assessed as increase in SOD activity; format: functional, organism-based; details: Candidozyma auris
[22] = tested on: [Candida] auris; assay: Induction of cell cycle arrest in Candida auris MRL6057 cells assessed as cell population at S phase at MIC measured by Muse cell analyzer; format: functional, Candidozyma auris
[23] = tested on: [Candida] auris; assay: Antifungal activity against clinical strain Candida auris; format: functional; details: Candidozyma auris

For O=C(Cn1nnc(/C=C/c2ccccc2)n1)N/N=C/c1ccc([N+](=O)[O-])cc1, the MFC [1] was 1.96 µg/mL (≈ 5.19 µM), the MIC [1] was 0.98 µg/mL (≈ 2.6 µM) and the Activity [2] was 83.1%. The Activity [3] was 7.2%, the Activity [4] was 48.2% and the Activity [5] was “Active”. For the same molecule, the Activity [6] was “Active”, the Activity [7] was “Active” and the Activity [8] was “Active”. The Activity [9] was 99.9%, the Activity [10] was “Active” and the Activity [11] was “Active”. The Activity [12] was “Active”, the Activity [13] was 48.3% and the Activity [14] was 44.5%. It also gave an Activity [15] of 2.3%, an Activity [16] of 69.2% and an Activity [17] of 75%. For the same molecule, the Activity [18] was “Active”, the Activity [19] was “Active” and the Activity [20] was “Active”. The Activity [21] was “Active” and the Activity [22] was 49.3%.
With C[C@@H]1[C@H](O)[C@@H](C)/C=C/C=C/C=C/C=C/C=C/C=C/C=C/[C@H](O[C@@H]2O[C@H](C)[C@@H](O)[C@H](N)[C@@H]2O)C[C@@H]2O[C@](O)(C[C@@H](O)C[C@@H](O)[C@H](O)CC[C@@H](O)C[C@@H](O)CC(=O)O[C@H]1C)C[C@H](O)[C@H]2C(=O)O [AMPHOTERICIN B] the MIC [23] was no less than 2 µg/mL, the MFC [1] was 8 µg/mL (≈ 8.66 µM) and the MIC [1] was 4 µg/mL (≈ 4.33 µM).
